Calls of active or inactive are those of the source. The rule behind the calls is not given here.
What was measured:
[1] = Cytotoxicity against human LX-2 cells assessed as reduction in cell viability measured after 48 hrs by CCK-8 assay; format: toxicity, cell-based
RAW264.7 [2] = assay: Inhibition of LPS-induced NFkappaB transcriptional activity in mouse RAW264.7 cells at 5 uM preincubated for 2 hrs followed by LPS stimulation and measured after 6 hrs by luciferase reporter gene assay relative to control; format: cell-based; details: time 8.0 hrs
RAW264.7 [3] = assay: Inhibition of LPS-induced NFkappaB transcriptional activity in mouse RAW264.7 cells at 20 uM preincubated for 2 hrs followed by LPS stimulation and measured after 6 hrs by luciferase reporter gene assay relative to control; format: cell-based; details: time 8.0 hrs
LX-2 [4] = assay: Inhibition of FBS-induced cell migration in human LX-2 cells assessed as reduction in wound healing measured after 24 hrs by scratch wound assay; format: functional, cell-based; details: dose 5-20 µM
RAW264.7 [5] = assay: Antiinflammatory activity in mouse RAW264.7 cells assessed as inhibition of LPS-induced collagen 1 expression at 5 to 20 uM preincubated for 2 hrs followed by LPS stimulation and measured after 48 hrs by Western blot analysis; format: functional, cell-based; details: dose 5-20 µM, time 50.0 hrs
RAW264.7 [6] = assay: Antiinflammatory activity in mouse RAW264.7 cells assessed as inhibition of TGFbeta1-induced alpha-SMA expression at 5 to 20 uM preincubated for 2 hrs […] and measured after 48 hrs by Western blot analysis; format: functional, cell-based; details: dose 5-20 µM, time 50.0 hrs
RAW264.7 [7] = assay: Antiinflammatory activity in mouse RAW264.7 cells assessed as inhibition of TGFbeta1-induced alpha-SMA mRNA expression at 5 to 20 uM preincubated for 2 hrs […] and measured after 48 hrs by qRT-PCR analysis; format: functional, cell-based; details: dose 5-20 µM, time 50.0 hrs
RAW264.7 [8] = assay: Antiinflammatory activity in mouse RAW264.7 cells assessed as inhibition of TGFbeta1-induced collagen 1 mRNA expression at 5 to 20 uM preincubated for 2 hrs […] and measured after 48 hrs by qRT-PCR analysis; format: functional, cell-based; details: dose 5-20 µM, time 50.0 hrs
Mus musculus [9] = assay: Antifibrotic activity against CCL4-induced C57BL/6J mouse hepatic fibrosis model assessed as reduction in hard texture of liver at 15 to 30 mg/kg, po administered via gavage for 4 weeks starting from 5th week of CCL4 stimulation; format: functional, organism-based; details: dose 15-30 mg/kg
Mus musculus [10] = assay: Antifibrotic activity against CCL4-induced C57BL/6J mouse hepatic fibrosis model assessed as reduction in rough surface of liver at 15 to 30 mg/kg, po administered via gavage for 4 weeks starting from 5th week of CCL4 stimulation; format: functional, organism-based; details: dose 15-30 mg/kg
Mus musculus [11] = assay: Antifibrotic activity against CCL4-induced C57BL/6J mouse hepatic fibrosis model assessed as reduction in liver edema at 15 to 30 mg/kg, po administered via gavage for 4 weeks starting from 5th week of CCL4 stimulation by H and E staining based histopathological analysis; format: functional, organism-based; details: dose 15-30 mg/kg
Mus musculus [12] = assay: Antifibrotic activity against CCL4-induced C57BL/6J mouse hepatic fibrosis model assessed as reduction in alphaSMA expression in liver at 15 to 30 mg/kg, po administered via gavage for 4 weeks starting from 5th week of CCL4 stimulation by Western blot analysis; format: functional, organism-based; details: dose 15-30 mg/kg
Mus musculus [13] = assay: Antifibrotic activity against CCL4-induced C57BL/6J mouse hepatic fibrosis model assessed as reduction in collagen 1 expression in liver at 15 to 30 mg/kg, po administered via gavage for 4 weeks starting from 5th week of CCL4 stimulation by Western blot analysis; format: functional, organism-based; details: dose 15-30 mg/kg
Mus musculus [14] = assay: Antifibrotic activity against BDL-induced C57BL/6J mouse hepatic fibrosis model assessed as reduction in alphaSMA expression in liver at 15 to 30 mg/kg, po administered via gavage starting from 3 days post-BDL by immunohistochemical staining based assay; format: functional, organism-based; details: dose 15-30 mg/kg
Mus musculus [15] = assay: Antifibrotic activity against BDL-induced C57BL/6J mouse hepatic fibrosis model assessed as reduction in alphaSMA mRNA expression in liver at 15 to 30 mg/kg, po administered via gavage starting from 3 days post-BDL by qRT-PCR analysis; format: functional, organism-based; details: dose 15-30 mg/kg
Mus musculus [16] = assay: Antifibrotic activity against BDL-induced C57BL/6J mouse hepatic fibrosis model assessed as reduction in collagen 1 mRNA expression in liver at 15 to 30 mg/kg, po administered via gavage starting from 3 days post-BDL by qRT-PCR analysis; format: functional, organism-based; details: dose 15-30 mg/kg
[17] = target: MAP kinase p38 (Homo sapiens) (UniProt O15264+Q15759+Q16539+P53778); assay: Inhibition of TGFbeta1-induced p38 phosphorylation in human LX-2 cells at 5 to 20 uM preincubated for 2 hrs followed by […] stimulation and measured after 2 hrs by Western blot analysis; format: cell-based; details: dose 5-20 µM, time 4.0 hrs
[18] = target: c-Jun N-terminal kinase, JNK (Homo sapiens) (UniProt P45983+P53779+P45984); assay: Inhibition of TGFbeta1-induced JNK phosphorylation in human LX-2 cells at 5 to 20 uM preincubated for 2 hrs followed by […] stimulation and measured after 2 hrs by Western blot analysis; format: cell-based; details: dose 5-20 µM, time 4.0 hrs
LX-2 [19] = assay: Inhibition of TGFbeta1-induced ERK1/2 phosphorylation in human LX-2 cells at 5 to 20 uM preincubated for 2 hrs followed by […] stimulation and measured after 2 hrs by Western blot analysis; format: cell-based; details: dose 5-20 µM, time 4.0 hrs
Mus musculus [20] = assay: In vivo inhibition of Smad3 phosphorylation in CCL4-induced C57BL/6J mouse hepatic fibrosis model at 15 to 30 mg/kg, po administered via gavage for 4 weeks starting from 5th week of CCL4 stimulation by Western blot analysis; format: functional, organism-based; details: dose 15-30 mg/kg
Mus musculus [21] = assay: In vivo inhibition of p38 phosphorylation in CCL4-induced C57BL/6J mouse hepatic fibrosis model at 15 to 30 mg/kg, po administered via gavage for 4 weeks starting from 5th week of CCL4 stimulation by Western blot analysis; format: functional, organism-based; details: dose 15-30 mg/kg
Mus musculus [22] = assay: In vivo inhibition of ERK1/2 phosphorylation in CCL4-induced C57BL/6J mouse hepatic fibrosis model at 15 to 30 mg/kg, po administered via gavage for 4 weeks starting from 5th week of CCL4 stimulation by Western blot analysis; format: functional, organism-based; details: dose 15-30 mg/kg
Mus musculus [23] = assay: In vivo inhibition of Smad2 phosphorylation in BDL-induced C57BL/6J mouse hepatic fibrosis model at 15 to 30 mg/kg, po administered via gavage starting from 3 days post-BDL by Western blot analysis; format: functional, organism-based; details: dose 15-30 mg/kg
Mus musculus [24] = assay: In vivo inhibition of Smad3 phosphorylation in BDL-induced C57BL/6J mouse hepatic fibrosis model at 15 to 30 mg/kg, po administered via gavage starting from 3 days post-BDL by Western blot analysis; format: functional, organism-based; details: dose 15-30 mg/kg
Mus musculus [25] = assay: In vivo inhibition of AKT phosphorylation in BDL-induced C57BL/6J mouse hepatic fibrosis model at 15 to 30 mg/kg, po administered via gavage starting from 3 days post-BDL by Western blot analysis; format: functional, organism-based; details: dose 15-30 mg/kg
Mus musculus [26] = assay: In vivo inhibition of p38 phosphorylation in BDL-induced C57BL/6J mouse hepatic fibrosis model at 15 to 30 mg/kg, po administered via gavage starting from 3 days post-BDL by Western blot analysis; format: functional, organism-based; details: dose 15-30 mg/kg
Mus musculus [27] = assay: In vivo inhibition of JNK phosphorylation in BDL-induced C57BL/6J mouse hepatic fibrosis model at 15 to 30 mg/kg, po administered via gavage starting from 3 days post-BDL by Western blot analysis; format: functional, organism-based; details: dose 15-30 mg/kg

With `COC(=O)CCC[C@@H]1[C@H]2CCCN3CCC[C@H](CN1C(=O)C(C)c1ccc(-c4ccccc4)c(F)c1)[C@@H]23` (some centres not stated) the IC50 at 48 h [1] was 38.2 µM, the fold change (FC) (RAW264.7 [2]) was 0.86 and the fold change (FC) (RAW264.7 [3]) was 0.59. For the same molecule, the inhibition (LX-2 [4]) was “Dose-dependent-effect”, the inhibition (RAW264.7 [5]) was “Active” and the inhibition (RAW264.7 [6]) was “Active”. The inhibition (RAW264.7 [7]) was “Active”, the inhibition (RAW264.7 [8]) was “Active” and the Activity (Mus musculus [9]) was “Active; Significant Alleviation Observed”. For the same molecule, the Activity (Mus musculus [10]) was “Active; Significant Alleviation Observed”, the Activity (Mus musculus [11]) was “Active” and the Activity (Mus musculus [12]) was “Active”. For the same molecule, the Activity (Mus musculus [13]) was “Active”, the Activity (Mus musculus [14]) was “Active” and the Activity (Mus musculus [15]) was “Active”. The Activity (Mus musculus [16]) was “Active”, the inhibition [17] was “inactive” and the inhibition [18] was “inactive”. The inhibition (LX-2 [19]) was “inactive”, the inhibition (Mus musculus [20]) was “Active” and the inhibition (Mus musculus [21]) was “inactive”. The inhibition (Mus musculus [22]) was “inactive”, the inhibition (Mus musculus [23]) was “Active” and the inhibition (Mus musculus [24]) was “Active”. The inhibition (Mus musculus [25]) was “Active”, the inhibition (Mus musculus [26]) was “inactive” and the inhibition (Mus musculus [27]) was “inactive”.

Reference: ChEMBL document CHEMBL6177933, “Discovery of Sophoridine α-Aryl Propionamide Derivative ZM600 as a Novel Antihepatic Fibrosis Agent” (J Med Chem, 2024)
